US4110327A, “2,3 Diketo-piperazinocarbonylamino alkanoic acids and derivatives” (Toyama Chemical Co., Ltd., priority 1974, dated 1978)
Values after ≈ are worked out from the molar mass of the structure shown.

How the values were obtained:
[1] = test system: β-lactamase; test: Resistant activity against β-lactamase, iodometric assay; format: biochemical, Pseudomonas aeruginosa GN 238; conditions: relative to Potassium Penicillin G = 100
Experimental: (3) Resistant activity against β-lactamase, Pseudomonas aergionan GN 238:
The resistant activity of each compound against β-lactamase was measured in the manner described below.
β-Lactamase was prepared from Pseudomonas aeruginosa GN 238. This microorganism was cultured in 100 ml of a medium containing 2 g of yeast extract, 10 g of polypeptone, 2 g of glucose, 7 g of disodium hydrogen phosphate, 2 g of potassium dihydrogen phosphate, 1.2 g of ammonium sulfate and 0.4 g of magnesium sulfate, per liter, in a 500-ml Erlenmeyer flask for 6 hrs. at 37° C with shaking. The resulting cells were collected by centrifugation (5,000 r.p.m. × 10 min.), washed three times with 0.1 M phosphate buffer (pH 7.0). Subsequently, the cells were subjected to sonication (20 KHz, 20 min.) and then centrifuged at 15,000 r.p.m. for 60 min. By using the supernatant of enzyme fluid, the resistance of each compound against β-lactamase was determined by the iodometric assay method. Each numeral shown in Table 7 is a relative activity value calculated by assuming as 100 the activity of the control Potassium Penicillin G.

[2] = test system: Staphylococcus aureus 209p; test: MIC against standard strain, plate method; format: cell-based; conditions: unit assumed
Procedure, shortened: (§1)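 Plate-method MIC. Medium: heart infusion agar, pH 7.4. Inoculum: 10^4 cells per plate (10^6 cells/ml).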

[3] = test system: Escherichia coli NIHJ; test: MIC against standard strain, plate method; format: cell-based; conditions: unit assumed
Procedure, shortened: as §1

[4] = test system: Proteus vulgaris 3027; test: MIC against standard strain, plate method; format: cell-based; conditions: Proteus vulgaris 3027, standard strain; unit assumed
Procedure, shortened: as §1

[5] = test system: Klebsiella pneumoniae; test: MIC against standard strain, plate method; format: cell-based; conditions: unit assumed
Procedure, shortened: as §1

[6] = test system: Pseudomonas aeruginosa I.F.O.; test: MIC against standard strain, plate method; format: cell-based; conditions: unit assumed
Procedure, shortened: as §1

[7] = test system: Pseudomonas aeruginosa; test: MIC against clinical isolates; format: cell-based; conditions: unit assumed
[8] = test system: Salmonella typhi; test: MIC against clinical isolates; format: cell-based; conditions: unit assumed
[9] = test system: Shigella sonnei; test: MIC against clinical isolates; format: cell-based; conditions: unit assumed
Experimental: (§2) The minimum inhibitory concentrations (MIC) was determined by the plate method disclosed in "Chemotherapy" (Japan), Vol. 16, (1968), pages 98 - 99. The culture medium used was a Heart infusion agar (pH 7.4). The number of the cells per plate used in the inoculum as 10^4 (10^6 cells/ml).
(§3) MIC was determined in the same manner as in the preceding paragraph (1).

[10] = test system: Shigella flexneri; test: MIC against clinical isolates; format: cell-based; conditions: unit assumed
Experimental: as §2, §3

[11] = test system: Proteus vulgaris; test: MIC against clinical isolates; format: cell-based; conditions: clinical isolate, unit assumed
[12] = test system: Escherichia coli; test: MIC against clinical isolates; format: cell-based; conditions: unit assumed
[13] = test system: Salmonella typhi-murium; test: MIC against clinical isolates; format: cell-based; conditions: unit assumed
[14] = test system: Proteus mirabilis; test: MIC against clinical isolates; format: cell-based; conditions: clinical isolate, unit assumed
[15] = test system: Staphylococcus aureus; test: MIC against clinical isolates; format: cell-based; conditions: unit assumed
[16] = test system: Klebsiella pneumoniae; test: MIC against clinical isolates; format: cell-based; conditions: unit assumed
[17] = test system: Proteus morganii; test: MIC against clinical isolates; format: cell-based; conditions: clinical isolate, unit assumed
[18] = test system: Proteus rettgeri; test: MIC against clinical isolates; format: cell-based; conditions: clinical isolate, unit assumed

CC1(C)S[C@@H]2[C@H](NC(=O)Cc3ccccc3)C(=O)N2[C@H]1C(=O)O [Potassium Penicillin G, reference compound]
Relative activity [1]: 100%

CC1(C)S[C@@H]2[C@H](NC(=O)[C@H](N)c3ccccc3)C(=O)N2[C@H]1C(=O)O [Sodium Ampicillin, SodiumAmpicillin, reference compound]
MIC [2]: < 1.57 µg/mL | MIC [3]: < 1.57 µg/mL | MIC [4]: > 200 µg/mL | MIC [5]: 50 µg/mL | MIC [6]: > 200 µg/mL | MIC ([7]; clinical isolate GN 82): > 200 µg/mL | MIC ([7]; clinical isolate GN 163): > 200 µg/mL | MIC ([7]; clinical isolate GN 221): > 200 µg/mL | MIC ([7]; clinical isolate GN 376): > 200 µg/mL | MIC ([7]; clinical isolate GN 383): > 200 µg/mL | MIC ([7]; clinical isolate GN 1035): > 200 µg/mL | MIC ([7]; clinical isolate GN 1091): > 200 µg/mL | MIC ([7]; clinical isolate GN 2565): > 200 µg/mL | MIC ([7]; clinical isolate GN 2987): > 200 µg/mL | MIC ([7]; clinical isolate GN (number not given; Table 5-3)): > 200 µg/mL | MIC ([7]; clinical isolate S-1): > 200 µg/mL | MIC ([7]; clinical isolate S-2): > 200 µg/mL | MIC ([7]; clinical isolate S-3): > 200 µg/mL | MIC ([7]; clinical isolate S-4): > 200 µg/mL | MIC ([8]; clinical isolate SL 819): 1.56 µg/mL | MIC ([8]; clinical isolate SL 2169): 0.78 µg/mL | MIC ([9]; clinical isolate JS 11232): > 200 µg/mL | MIC ([9]; clinical isolate JS 11755): 6.25 µg/mL | MIC ([10]; clinical isolate JS 11839): 1.57 µg/mL | MIC [11]: < 1.5 µg/mL | MIC ([12]; clinical isolate GN 3452): 6.25 µg/mL | MIC ([12]; clinical isolate GN 3481): 6.25 µg/mL | MIC ([12]; clinical isolate GN 3611): > 200 µg/mL | MIC ([12]; clinical isolate K-1): 6.25 µg/mL | MIC ([12]; clinical isolate K-2): 6.25 µg/mL | MIC ([12]; clinical isolate K-3): > 200 µg/mL | MIC ([13]; clinical isolate SL 858): 3.13 µg/mL | MIC ([13]; clinical isolate SL 2136): > 200 µg/mL | MIC [14]: < 1.57 µg/mL | MIC ([15]; clinical isolate F-2): 0.79 µg/mL | MIC ([15]; clinical isolate F-5): 50 µg/mL | MIC ([15]; clinical isolate MS 8588): 6.25 µg/mL | MIC ([15]; clinical isolate MS 8619): < 0.4 µg/mL | MIC ([16]; clinical isolate GN 917): 25 µg/mL | MIC ([16]; clinical isolate GN 3850): 50 µg/mL | MIC ([16]; clinical isolate GN 4081): > 200 µg/mL | MIC ([16]; clinical isolate GN 4117): > 200 µg/mL | MIC [17]: < 1.57 µg/mL | MIC [18]: 200 µg/mL

CC(C)N1CCN(C(=O)N[C@@H](C(=O)N[C@@H]2C(=O)N3[C@@H]2SC(C)(C)[C@@H]3C(=O)O)c2ccccc2)C(=O)C1=O (single isomer, unassigned) [compound 40]
MIC [2]: 0.4 µg/mL (≈ 0.752 µM) | MIC [3]: < 0.1 µg/mL | MIC [4]: 0.4 µg/mL (≈ 0.752 µM) | MIC [5]: 3.13 µg/mL (≈ 5.89 µM) | MIC ([7]; clinical isolate GN 376): 3.13 µg/mL (≈ 5.89 µM) | MIC ([7]; clinical isolate GN 1035): 25 µg/mL (≈ 47 µM) | MIC ([7]; clinical isolate GN 2565): 12.5 µg/mL (≈ 23.5 µM) | MIC ([7]; clinical isolate GN 2987): 3.13 µg/mL (≈ 5.89 µM) | MIC ([7]; clinical isolate S-1): 12.5 µg/mL (≈ 23.5 µM) | MIC ([7]; clinical isolate S-2): 25 µg/mL (≈ 47 µM) | MIC ([7]; clinical isolate S-3): 25 µg/mL (≈ 47 µM) | MIC ([7]; clinical isolate S-4): 12.5 µg/mL (≈ 23.5 µM) | MIC ([8]; clinical isolate SL 819): 1.57 µg/mL (≈ 2.95 µM) | MIC ([8]; clinical isolate SL 2169): 1.57 µg/mL (≈ 2.95 µM) | MIC ([9]; clinical isolate JS 11232): 50 µg/mL (≈ 94.1 µM) | MIC ([9]; clinical isolate JS 11755): 3.13 µg/mL (≈ 5.89 µM) | MIC ([10]; clinical isolate JS 11215): 50 µg/mL (≈ 94.1 µM) | MIC ([10]; clinical isolate JS 11839): 3.13 µg/mL (≈ 5.89 µM) | MIC [11]: < 0.4 µg/mL | MIC ([12]; clinical isolate GN 3435): 0.79 µg/mL (≈ 1.49 µM) | MIC ([12]; clinical isolate GN 3465): 50 µg/mL (≈ 94.1 µM) | MIC ([12]; clinical isolate GN 3611): > 200 µg/mL | MIC ([12]; clinical isolate K-2): 3.13 µg/mL (≈ 5.89 µM) | MIC ([12]; clinical isolate K-3): > 200 µg/mL | MIC ([12]; clinical isolate K-4): 0.79 µg/mL (≈ 1.49 µM) | MIC ([13]; clinical isolate SL 858): 6.25 µg/mL (≈ 11.8 µM) | MIC ([13]; clinical isolate SL 2136): > 200 µg/mL | MIC [14]: < 0.4 µg/mL | MIC ([15]; clinical isolate F-2): 3.13 µg/mL (≈ 5.89 µM) | MIC ([15]; clinical isolate F-3): 0.79 µg/mL (≈ 1.49 µM) | MIC ([15]; clinical isolate F-5): > 200 µg/mL | MIC ([15]; clinical isolate MS 8588): 3.13 µg/mL (≈ 5.89 µM) | MIC ([15]; clinical isolate MS 8596): 3.13 µg/mL (≈ 5.89 µM) | MIC ([15]; clinical isolate MS 8619): 0.79 µg/mL (≈ 1.49 µM) | MIC ([15]; clinical isolate MS 8684): 3.13 µg/mL (≈ 5.89 µM) | MIC ([15]; clinical isolate MS 8713): 12.5 µg/mL (≈ 23.5 µM) | Relative activity [1]: 15% | MIC ([16]; clinical isolate GN 3850): 12.5 µg/mL (≈ 23.5 µM) | MIC ([16]; clinical isolate GN 4081): 100 µg/mL (≈ 188 µM) | MIC ([16]; clinical isolate GN 4117): 50 µg/mL (≈ 94.1 µM) | MIC [17]: 0.79 µg/mL (≈ 1.49 µM)
